# Measured values reported in US20230372498A1, “PLK1 SELECTIVE DEGRADATION INDUCING COMPOUND” (UPPTHERA, priority 2020, published 2023).
# Target: T1, PLK1 (Homo sapiens, UniProt P53350)
# T1 construct: endogenous in cells; host or cells: HeLa
# Experiment: PLK1 protein degradation in HeLa cells, Western blotting (PLK1/GAPDH ratio)
# Format: cell-based
# Details: 6 hours compound incubation; for Dmax: thymidine block and release, 10 points three-fold from 3 μM, PLK1 to GAPDH ratio, read-out: Dmax; for DC50: measured only if the grade of Dmax is A or B
# Summary of the method: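 PLK1 level measured by Western blot as PLK1/GAPDH in HeLa lysates (15 μg protein per lane). Cells were blocked with 2 mM thymidine 24 h, released 4 h, and exposed 6 h to compound, 10 concentrations, 3-fold steps, top 3 μM.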
# T1 sequence (P53350 whole entry): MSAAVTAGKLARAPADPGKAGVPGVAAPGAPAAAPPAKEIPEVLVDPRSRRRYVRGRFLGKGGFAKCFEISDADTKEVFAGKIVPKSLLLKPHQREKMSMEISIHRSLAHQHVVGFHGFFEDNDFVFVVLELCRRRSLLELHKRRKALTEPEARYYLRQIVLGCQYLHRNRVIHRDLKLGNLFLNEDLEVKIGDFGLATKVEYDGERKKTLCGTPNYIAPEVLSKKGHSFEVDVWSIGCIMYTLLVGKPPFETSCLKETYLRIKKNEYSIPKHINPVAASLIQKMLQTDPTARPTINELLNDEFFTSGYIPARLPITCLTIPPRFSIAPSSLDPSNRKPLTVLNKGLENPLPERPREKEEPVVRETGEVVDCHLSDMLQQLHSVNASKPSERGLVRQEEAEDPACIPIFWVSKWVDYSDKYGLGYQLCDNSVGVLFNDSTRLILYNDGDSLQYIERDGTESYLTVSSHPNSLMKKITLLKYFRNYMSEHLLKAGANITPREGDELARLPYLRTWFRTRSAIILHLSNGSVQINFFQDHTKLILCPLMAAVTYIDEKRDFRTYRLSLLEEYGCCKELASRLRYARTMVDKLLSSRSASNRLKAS
SMILES,Dmax,DC50
"COc1cc(C(=O)NCCOCCOCCNc2cccc3c2C(=O)N(C2CCC(=O)NC2=O)C3=O)c(F)cc1Nc1ncc2c(n1)N(C(C)C)CC(F)(F)C(=O)N2C (stereo not shown) [Example 167, 4-((7,7-difluoro-9-isopropyl-5-methyl-6-oxo-6,7,8,9-tetrahydro-5H-pyrimido[4,5-b][1,4]diazepin-2-yl)amino)-N-(2-(2-(2-((2-(2,6-dioxopiperidin-3-yl)-1,3-dioxoisoindolin-4-yl)amino)ethoxy)ethoxy)ethyl)-2-fluoro-5-methoxybenzamide]",60 to 80%,
"COc1cc(C(=O)NC2CCN(CCOCCNC(=O)COc3cccc4c3C(=O)N(C3CCC(=O)NC3=O)C4=O)C2)c(F)cc1Nc1ncc2c(n1)N(C1CCCC1)CC(F)(F)C(=O)N2C (stereo not shown) [Compound 127, 4-((9-cyclopentyl-7,7-difluoro-5-methyl-6-oxo-6,7,8,9-tetrahydro-5H-pyrimido[4,5-b][1,4]diazepin-2-yl)amino)-N-(1-(2-(2-(2-((2-(2,6-dioxopiperidin-3-yl)-1,3-dioxoisoindolin-4-yl)oxy)acetamido)ethoxy)ethyl)pyrrolidin-3-yl)-2-fluoro-5-methoxybenzamide]",60 to 80%,≤ 500 nM
COc1cc(C(=O)N[C@H]2CCN(CC(=O)NCCCNc3cccc4c3C(=O)N(C3CCC(=O)NC3=O)C4=O)C2)c(F)cc1Nc1ncc2c(n1)N(C1CCCC1)CC(F)(F)C(=O)N2C (stereo partly shown) [Compound 122],≥ 80%,≤ 50 nM
"COc1cc(C(=O)NC2CCN(CC(=O)NCCOCCOCCOCCNc3cccc4c3C(=O)N(C3CCC(=O)NC3=O)C4=O)CC2)c(F)cc1Nc1ncc2c(n1)N(C1CCCC1)CC(F)(F)C(=O)N2C (stereo not shown) [Compound 36, 4-((9-cyclopentyl-7,7-difluoro-5-methyl-6-oxo-6,7,8,9-tetrahydro-5H-pyrimido[4,5-b][1,4]diazepin-2-yl)amino)-N-(1-(14-((2-(2,6-dioxopiperidin-3-yl)-1,3-dioxoisoindolin-4-yl)amino)-2-oxo-6,9,12-trioxa-3-azatetradecyl)piperidin-4-yl)-2-fluoro-5-methoxybenzamide]",≥ 80%,≤ 50 nM
"COc1cc(C(=O)N[C@H]2CCN(C(=O)CCN3CCN(c4ccc5c(c4)C(=O)N(C4CCC(=O)NC4=O)C5=O)CC3)C2)ccc1Nc1ncc2c(n1)N(C1CCCC1)CC(F)(F)C(=O)N2C (stereo partly drawn) [Example 174, 4-((9-cyclopentyl-7,7-difluoro-5-methyl-6-oxo-6,7,8,9-tetrahydro-5H-pyrimido [4,5-b][1,4]diazepin-2-yl)amino)-N-((3S)-1-(3-(4-(2-(2,6-dioxopiperidin-3-yl)-1,3-dioxoisoindolin-5-yl)piperazin-1-yl)propanoyl)pyrrolidin-3-yl)-3-methoxybenzamide]",≥ 80%,
"COc1cc(C(=O)NC2CCN(CCCOCCCNc3cccc4c3C(=O)N(C3CCC(=O)NC3=O)C4=O)C2)c(F)cc1Nc1ncc2c(n1)N(C1CCCC1)CC(F)(F)C(=O)N2C (stereo not shown) [Example 111, 4-((9-cyclopentyl-7,7-difluoro-5-methyl-6-oxo-6,7,8,9-tetrahydro-5H-pyrimido[4,5-b][1,4]diazepin-2-yl)amino)-N-(1-(3-(3-((2-(2,6-dioxopiperidin-3-yl)-1,3-dioxoisoindolin-4-yl)amino)propoxy)propyl)pyrrolidin-3-yl)-2-fluoro-5-methoxybenzamide]",≥ 80%,≤ 50 nM
"COc1cc(C(=O)NC2CCN(CCOCCOCCOCCOCCNc3cccc4c3CN(C3CCC(=O)NC3=O)C4=O)CC2)c(F)cc1Nc1ncc2c(n1)N(C1CCCC1)CC(F)(F)C(=O)N2C (stereo not shown) [Compound 76, 4-((9-cyclopentyl-7,7-difluoro-5-methyl-6-oxo-6,7,8,9-tetrahydro-5H-pyrimido[4,5-b][1,4]diazepin-2-yl)amino)-N-(1-(14-((2-(2,6-dioxopiperidin-3-yl)-1-oxoisoindolin-4-yl)amino)-3,6,9,12-tetraoxatetradecyl)piperidin-4-yl)-2-fluoro-5-methoxybenzamide]",60 to 80%,≤ 500 nM
"COc1cc(C(=O)NCCOCCNc2cccc3c2C(=O)N(C2CCC(=O)NC2=O)C3=O)c(F)cc1Nc1ncc2c(n1)N(C1CCCC1)CC(F)(F)C(=O)N2C (stereo not shown) [Compound 151, 4-((9-cyclopentyl-7,7-difluoro-5-methyl-6-oxo-6,7,8,9-tetrahydro-5H-pyrimido[4,5-b][1,4]diazepin-2-yl)amino)-N-(2-(2-((2-(2,6-dioxopiperidin-3-yl)-1,3-dioxoisoindolin-4-yl)amino)ethoxy)ethyl)-2-fluoro-5-methoxybenzamide]",60 to 80%,≤ 500 nM
"CCOc1cc(C(=O)NC2CCN(CCOCCOCCNc3cccc4c3C(=O)N(C3CCC(=O)NC3=O)C4=O)CC2)c(F)cc1Nc1ncc2c(n1)N(C1CCCC1)CC(F)(F)C(=O)N2C (stereo not shown) [Example 90, 4-((9-cyclopentyl-7,7-difluoro-5-methyl-6-oxo-6,7,8,9-tetrahydro-5H-pyrimido[4,5-b][1,4]diazepin-2-yl)amino)-N-(1-(2-(2-(2-((2-(2,6-dioxopiperidin-3-yl)-1,3-dioxoisoindolin-4-yl)amino)ethoxy)ethoxy)ethyl)piperidin-4-yl)-5-ethoxy-2-fluorobenzamide]",60 to 80%,≤ 500 nM
"COc1cc(C(=O)N[C@H]2CCN(CCOCCNC(=O)CNc3cccc4c3C(=O)N(C3CCC(=O)NC3=O)C4=O)C2)c(F)cc1Nc1ncc2c(n1)N(C1CCCC1)CC(F)(F)C(=O)N2C (stereo partly drawn) [Example 112, 4-((9-cyclopentyl-7,7-difluoro-5-methyl-6-oxo-6,7,8,9-tetrahydro-5H-pyrimido[4,5-b][1,4]diazepin-2-yl)amino)-N-((3S)-1-(2-(2-(2-((2-(2,6-dioxopiperidin-3-yl)-1,3-dioxoisoindolin-4-yl)amino)acetamido)ethoxy)ethyl)pyrrolidin-3-yl)-2-fluoro-5-methoxybenzamide]",60 to 80%,≤ 500 nM
"COc1cc(C(=O)NC2CCN(CCCCCCCNc3cccc4c3C(=O)N(C3CCC(=O)NC3=O)C4=O)CC2)c(F)cc1Nc1ncc2c(n1)N(C1CCCC1)CC(F)(F)C(=O)N2C (stereo not shown) [Compound 11, 4-((9-cyclopentyl-7,7-difluoro-5-methyl-6-oxo-6,7,8,9-tetrahydro-5H-pyrimido[4,5-b][1,4]diazepin-2-yl)amino)-N-(1-(7-((2-(2,6-dioxopiperidin-3-yl)-1,3-dioxoisoindolin-4-yl)amino)heptyl)piperidin-4-yl)-2-fluoro-5-methoxybenzamide]",60 to 80%,≤ 500 nM
"COc1cc(C(=O)NC2CCN(C(=O)CCN3CCN(c4cccc5c4C(=O)N(C4CCC(=O)NC4=O)C5=O)CC3)CC2)c(F)cc1Nc1ncc2c(n1)N(C1CCCC1)CC(F)(F)C(=O)N2C (stereo not shown) [Compound 71, 4-((9-cyclopentyl-7,7-difluoro-5-methyl-6-oxo-6,7,8,9-tetrahydro-5H-pyrimido[4,5-b][1,4]diazepin-2-yl)amino)-N-(1-(3-(4-(2-(2,6-dioxopiperidin-3-yl)-1,3-dioxoisoindolin-4-yl)piperazin-1-yl)propanoyl)piperidin-4-yl)-2-fluoro-5-methoxybenzamide]",≥ 80%,≤ 50 nM
